Source: US20160368879A1, “PHOTOACID GENERATOR, AND RESIN COMPOSITION FOR PHOTOLITHOGRAPHY” (SAN-APRO LTD., priority 2013, published 2016)

Columns and labels:
Type in all cases: physicochemical
[1] = Solvent solubility (butyl acetate, toluene or PGMEA); settings: 25° C.
Outline: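 Test-tube titration at 25° C: 0.1 g photoacid generator, solvent (butyl acetate, toluene or PGMEA) added in 0.2 g portions until fully dissolved. Scored as not dissolved if still undissolved after 20 g solvent.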

[2] = Thermal decomposition temperature (TG/DTA, 2% weight reduction); settings: point of 2% weight reduction; 10° C./minute from 30° C. to 500° C.; nitrogen atmosphere
Experimental: The synthesized photoacid generator was measured for the change in weight under a temperature increasing condition of 10° C./minute from 30° C. to 500° C. under a nitrogen atmosphere using a thermal gravimetric/differential thermal analyzer (TG/DTA 6200, available from Seiko Instruments Inc.), and a point where the weight was reduced by 2% was defined as the thermal decomposition temperature.

[3] = Molar extinction coefficient of i-line (365 nm), UV-visible absorbance in acetonitrile; settings: 0.25 mmol/L in acetonitrile, cell length 1 cm
Outline: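 Compound at 0.25 mmol/L in acetonitrile; UV-visible absorbance scanned 200–500 nm in a 1 cm path cell. ε365 calculated from the absorbance at 365 nm.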

SMILES: CC1(C)[C@@H]2CC[C@@]1(CS(=O)(=O)ON1C(=O)c3cccc4c([Si](C)(C)C)ccc(c34)C1=O)C(=O)C2 [Example A-58, 4-trimethylsilyl-1,8-naphthalimide-(+)-10-camphorsulfonate]
- Solvent solubility PGMEA [1]: 2.5 wt %
- Solvent solubility Butyl acetate [1]: 2.5 wt %
- Solvent solubility Toluene [1]: 3 wt %
- Thermal decomposition temperature [2]: 243 °C
- Molar extinction coefficient [3]: 5500 L/mol/cm

SMILES: CC1(C)C2CCC1(CS(=O)(=O)ON1C(=O)c3cccc4c(Cl)ccc(c34)C1=O)C(=O)C2 (stereo not drawn) [Example A-59, 4-chloro-1,8-naphthalimide-(+)-10-camphorsulfonate]
- Solvent solubility PGMEA [1]: 1.5 wt %
- Solvent solubility Butyl acetate [1]: 1.5 wt %
- Solvent solubility Toluene [1]: 2.5 wt %
- Thermal decomposition temperature [2]: 228 °C
- Molar extinction coefficient [3]: 6000 L/mol/cm

SMILES: CC1(C)C2CCC1(CS(=O)(=O)ON1C(=O)c3cccc4c(Br)ccc(c34)C1=O)C(=O)C2 (stereo not drawn) [Example A-60, 4-bromo-1,8-naphthalimide-(+)-10-camphorsulfonate]
- Solvent solubility PGMEA [1]: 1.5 wt %
- Solvent solubility Butyl acetate [1]: 1.1 wt %
- Solvent solubility Toluene [1]: 2 wt %
- Thermal decomposition temperature [2]: 240 °C
- Molar extinction coefficient [3]: 8500 L/mol/cm
